Measurements reported in patent publication US6576464B2, “Methods for providing differentiated stem cells” (Geron Corporation, priority 2000, dated 2003).

Columns and labels:
hTERT = hTERT expression by RT-PCR after exposure to differentiation factors; assay type: cell-based, human; conditions: after exposure of hES cells to the factor
Description: For radioactive relative quantification of individual gene products, QuantumRNA™ Alternate18S Internal Standard primers (Ambion, Austin Tex., USA) were employed according to the manufacturer's instructions. Briefly, the linear range of amplification of a particular primer pair was determined, then coamplified with the appropriate mixture of alternare18S primers:competimers to yield PCR products with coinciding linear ranges. Before addition of AmpliTaq™ (Roche) to PCR reactions, the enzyme was pre-incubated with the TaqStart™ antibody (ProMega) according to manufacturer's instructions. Radioactive PCR reactions were analyzed on 5% non-denaturing polyacrylamide gels, dried, and exposed to phosphoimage screens (Molecular Dynamics) for 1 hour. Screens were scanned with a Molecular Dynamics Storm 860 and band intensities were quantified using ImageQuant™ software. Results are expressed as the ratio of radioactivity incorporated into the hTERT or OCT-4 band, standardized to the radioactivity incorporated into the 18s band.
Primers and amplification conditions for particular markers are as follows.

H9 hES cell line clones = assay: Ganciclovir sensitivity screen of stable GRN376mod-transfected hES clones; assay type: cell-based, human; conditions: ten of ninety GRN376mod clones; ganciclovir at a concentration of 30 μg
Excerpt: To facilitate creation of stable cell lines genetically altered with the hTERT promoter/thymidine kinase construct, plasmid pGRN376 (Example X) was modified to delete most of the adenovirus sequence. The plasmid was digested with Stul and Not I, followed by blunting and re-ligation. The remaining vector contained the hTERT promoter/thymidine kinase construct, preceded by the transcription blocking sequence to prevent promotion of tk gene expression by promoter sequences upstream from the integration site in the genome. The modified vector was designated pGRN376mod.
Cultures of the H9 hES cell line were split 1:4 using PBS containing 0.5 mM EDTA, as described earlier, and plated in feeder-free culture in 6-well plates. Twenty-four hrs after plating, cells were cotransfected with 2 μg GRN376mod plus 0.5 μg of a plasmid encoding neomycin pho, using FuGENETM-6 as described above. Medium containing 200 μg/mL geneticin was added 48 h after transfection to select out transfected cells. After 7-10 days in geneticin-containing medium, 103 individual colonies were picked from the wells and individually plated in 24-well plates, which were then expanded by culturing for ˜7 days. Ninety individual clones were screened for sensitivity to the pro-drug ganciclovir at a concentration of 30 μg. […]

[1] = tested on: Undifferentiated H1 hES cells; assay: Titration of GCV in TPAC vector treated hES cells; assay type: cell-based, human; conditions: hES cells transduced with pGRN376 at MOI 30; 5, 10, 20, 30, 40 μM tested; day 2
Description: Undifferentiated H1 cells were plated into 24 well plates (1 confluent well of a 6 well plate split into 24 wells of a 24 well plate). After 48 h, some wells were infected with pGRN376 at an MOI of 30. Four h after addition of the viral vector, medium was exchanged for new mEF-CM; some wells received medium supplemented with 5, 10, 20, 30, or 40 μM ganciclovir (GCV). Cells exposed to GCV were re-fed with MEF-CM containing GCV daily for 2 days. On day 2 after the initiation of GCV treatment, wells were harvested and analyzed by flow cytometry to assess changes in total cell number, and cell viability (measured by PI exclusion).

[2] = tested on: Undifferentiated hES lines H1 and H7; assay: Comparison of hES lines: total cell number after pGRN376 and GCV; assay type: cell-based, human; conditions: mock-transduced cells
Description: Undifferentiated hES of lines designated H1 and H7 cells were plated into 24 well plates (1 confluent well of a 6 well plate split into 24 wells of a 24 well plate). […] Four h after addition of the viral vector, medium was exchanged for new mEF-CM; some wells received medium supplemented with 20 AM GCV. Cells exposed to GCV were re-fed with mEF-CM containing GCV daily for 3 days. On day 4 after the initiation of GCV treatment, wells were harvested and analyzed by flow cytometry to assess changes in total cell number.

normal BJ cells = assay: Ganciclovir treatment in vitro of normal cells carrying hTERT promoter/tk constructs; assay type: cell-based
Description: (§1) The ability of the hTERT promoter to specifically drive the expression of the thymidine kinase (tk) gene in tumor cells was tested using a variety of constructs: One construct, designated pGRN266, contains an EcoRI-FseI PCR fragment with the tk gene cloned into the EcoRI-FseI sites of pGRN263. pGRN263, containing approximately 2.5 kb of hTERT promoter sequence, is similar to pGRN150, but contains a neomycin gene as selection marker. pGRN267 contains an EcoRI-FseI PCR fragment with the tk gene cloned into the EcoRI-FseI sites of pGRN264. pGRN264, containing approximately 210 bp of hTERT promoter sequence, is similar to pGRN176, but contains a neomycin gene as selection marker. pGRN268 contains an EcoRI-XbaI PCR fragment with the tk gene cloned into the EcoRI-XbaI (unmethylated) sites of pGRN265. pGRN265, containing approximately 90 bp of hTERT promoter sequence, is similar to pGRN175, but contains a neomycin gene as selection marker.
(§2) These hTERT promoter/tk constructs, pGRN266, pGRN267 and pGRN268, were reintroduced into mammalian cells and tk/+stable clones (and/or mass populations) were selected. […] Ganciclovir treatment had no effect on normal BJ cells.

[3] = tested on: tumor lines 143B, 293, HT1080, Bxpc-3', DAOY and NIH3T3; assay: Ganciclovir treatment in vitro of tk+ tumor lines carrying hTERT promoter/tk constructs; assay type: cell-based; conditions: tk/+ stable clones or mass populations with pGRN266, pGRN267, pGRN268
Description: as §1, §2

H1 hES cells = assay: Stable transfection of feeder-free hES cells with geneticin selection; assay type: cell-based, human; conditions: 200 μg/mL in mEF-conditioned medium
Description: To investigate whether the feeder-free hES cells undergo stable genetic modification, H1 hES cells maintained on Matrigel® were cotransfected with a mixture of 7.5 μg plasmid carrying β-galactosidase driven by the EF1a promoter, and 2.5 μg of plasmid carrying the PGK promoter driving the neophosphotransferase gene. The cells were transfected 48 h after plating them on Matrigel® in mEF-conditioned medium. 10 μg of plasmid plus 15 μl of FuGENE™ were incubated with the cells in 1 mnL for 4 h before adding 2.5 mL of mEF-conditioned medium. After 48 h, medium was exchanged for mEF-conditioned medium supplemented with 200 μg/mL geneticin. Cultures were maintained in this geneticin-containing medium with daily medium exchange for over 21 days. All mock-transfected cultures (i.e., those that received FUGENE™ mixed with water rather than plasmid) died within 48-72 h. Drug resistant colonies arose in the wells transfected with both FUGENE™ and plasmid at a frequency of about 1 in to 10^5 originally transfected cells. The colonies were maintained in geneticin-containing mEF-conditioned medium and expanded.

hES cells = assay: Neuron formation from directly differentiated hES cells with neurotrophin growth factors (count of β-tubulin positive cells); assay type: cell-based, human; conditions: fixed after 7 days of differentiation
Description: The effect of several members of the neurotrophin growth factor family was examined. hES cells were differentiated by harvesting with collagenase, dissociating, and reseeding onto poly-ornithine coated cover slips. The cells were plated into DMEM/F12+N2+10% FBS overnight. The following day, the serum was removed from the medium and replaced with 10 ng/mL human bFGF and the growth factor being tested. After 24 hours, bFGF was removed from the medium. These cultures were fed every other day. They were fixed after 7 days of differentiation and immunostained for analysis. The number of neurons was evaluated by counting cells positive for β-tubulin. Cultures maintained in the presence of 10 ng/mL brain derived neurotrophic factor (BDNF) formed approximately 3-fold more neurons than the control cultures. Cultures maintained in neurotrophin-3 (1 ng/mL) formed approximately 2-fold more neurons than control cultures.

## C[S+](C)[O-] [dimethyl sulfoxide]
hTERT
  expression of hTERT: markedly decreased

## Nc1nc(O)c2ncn(COC(CO)CO)c2n1 [ganciclovir]
H9 hES cell line clones
  time in which essentially all undifferentiated cells died: 1 to 3 days
[1]
  optimal GCV concentration: ~20 µM
[2]
  toxicity induced by GCV alone, H7 compared with H1: less toxicity
Normal BJ cells
  effect of ganciclovir treatment on normal cells: no effect
[3]
  effect of ganciclovir treatment on tk+ tumor lines: selective destruction of all tumor lines tested

## CN[C@@H]1[C@@H](O)[C@@H](O[C@@H]2[C@@H](O)[C@H](O[C@H]3O[C@H]([C@@H](C)O)[C@@H](O)[C@H](O)[C@H]3N)[C@@H](N)C[C@H]2N)OC[C@]1(C)O [geneticin]
H1 hES cells
  time in which all mock-transfected cultures died: 48 to 72 h

B1: neurotrophin-3 (protein, UniProt P20783 139-257, looked up)
Neurotrophin-3: YAEHKSHRGEYSVCDSESLWVTDKSSAIDIRGHQVTVLGEIKTGNSPVKQYFYETRCKEARPVKNGCRGIDDKHWNSQCKTSQTYVRALTSENNKLVGWRWIRIDTSCVCALSRKIGRT
notes: neurotrophin growth factor
hES cells; 1 ng/mL
  neurons formed relative to control cultures (cells positive for β-tubulin): approximately 2 fold

B2: brain derived neurotrophic factor (protein, UniProt P23560 19-247, looked up)
Neurotrophic factor BDNF …: APMKEANIRGQGGLAYPGVRTHGTLESVNGPKAGSRGLTSLADTFEHVIEELLDEDQKVRPNEENNKDADLYTSRVMLSSQVPLEPPLLFLLEEYKNYLDAANMSMRVRRHSDPARRGELSVCDSISEWVTAADKKTAVDMSGGTVTVLEKVPVSKGQLKQYFYETKCNPMGYTKEGCRGIDKRHWNSQCRTTQSYVRALTMDSKKRIGWRFIRIDTSCVCTLTIKRGR
notes: neurotrophin growth factor
hES cells; 10 ng/mL
  neurons formed relative to control cultures (cells positive for β-tubulin): approximately 3 fold
